The nature of data set [1]: Compound stability in rat liver microsomes. The format is in vitro ADME. Conditions: pH 7.4; for half-life at 5 μM: rat liver microsomes 0.5 mg protein/mL, compound 5 μM, NADPH 1.0 mM, 37° C.; for CLint scaled at 5 μM: rat liver microsomes, in vivo CLint extrapolated.
Data set [2] is described as follows: Pharmacokinetics after intravenous and oral administration in rats. The format is in vivo, rat. Conditions: for clearance (CL) / AUC(0-t) / half-life / Vd: iv dosing; for bioavailability / AUC(0-t) / half-life / Vd: rat, plasma; for bioavailability: oral dose generally 5 or 10 mg/kg; for Vd: read-out: Vss.
In a further data set the target is PI3K (p110β/p85α) (h) (Homo sapiens (Human), UniProt P42338). Nature of the data set: PI3K (p110β/p85α) (h) non-radioactive HTRF kinase assay. The format is biochemical. For orientation: Time-resolved FRET reads energy transfer from a long-lived donor to a nearby acceptor.
Chain of PI3K (p110β/p85α) (h) (P42338 whole entry): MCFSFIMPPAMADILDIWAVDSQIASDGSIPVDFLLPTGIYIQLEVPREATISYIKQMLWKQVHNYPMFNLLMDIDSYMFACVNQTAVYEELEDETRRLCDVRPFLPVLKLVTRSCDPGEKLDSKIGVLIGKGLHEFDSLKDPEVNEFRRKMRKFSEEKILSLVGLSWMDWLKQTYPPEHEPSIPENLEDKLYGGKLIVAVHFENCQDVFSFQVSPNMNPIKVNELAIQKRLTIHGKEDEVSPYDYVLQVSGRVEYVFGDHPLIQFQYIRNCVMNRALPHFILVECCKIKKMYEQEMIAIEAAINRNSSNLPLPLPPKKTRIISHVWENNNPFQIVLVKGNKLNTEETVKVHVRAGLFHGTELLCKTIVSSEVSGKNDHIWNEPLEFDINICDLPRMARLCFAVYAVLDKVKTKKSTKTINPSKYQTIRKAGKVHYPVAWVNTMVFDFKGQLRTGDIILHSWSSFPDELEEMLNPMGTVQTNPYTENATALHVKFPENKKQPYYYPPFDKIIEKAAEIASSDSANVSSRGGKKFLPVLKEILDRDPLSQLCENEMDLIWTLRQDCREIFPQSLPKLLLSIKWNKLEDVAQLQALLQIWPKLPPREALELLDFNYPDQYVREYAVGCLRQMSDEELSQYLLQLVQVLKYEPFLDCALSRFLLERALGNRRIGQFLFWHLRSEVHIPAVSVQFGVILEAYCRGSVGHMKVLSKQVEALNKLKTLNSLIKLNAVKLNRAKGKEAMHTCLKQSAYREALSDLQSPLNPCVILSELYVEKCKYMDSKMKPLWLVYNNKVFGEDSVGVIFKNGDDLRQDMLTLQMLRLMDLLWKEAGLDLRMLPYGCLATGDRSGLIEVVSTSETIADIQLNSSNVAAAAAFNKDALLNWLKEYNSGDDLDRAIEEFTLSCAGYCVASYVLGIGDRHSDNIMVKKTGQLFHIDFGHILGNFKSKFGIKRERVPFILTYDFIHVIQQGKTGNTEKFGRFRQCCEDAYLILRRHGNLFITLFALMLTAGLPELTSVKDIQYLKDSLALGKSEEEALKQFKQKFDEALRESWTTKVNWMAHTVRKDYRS
Chain of PI3K (p110β/p85α) (h) (P27986 whole entry partner): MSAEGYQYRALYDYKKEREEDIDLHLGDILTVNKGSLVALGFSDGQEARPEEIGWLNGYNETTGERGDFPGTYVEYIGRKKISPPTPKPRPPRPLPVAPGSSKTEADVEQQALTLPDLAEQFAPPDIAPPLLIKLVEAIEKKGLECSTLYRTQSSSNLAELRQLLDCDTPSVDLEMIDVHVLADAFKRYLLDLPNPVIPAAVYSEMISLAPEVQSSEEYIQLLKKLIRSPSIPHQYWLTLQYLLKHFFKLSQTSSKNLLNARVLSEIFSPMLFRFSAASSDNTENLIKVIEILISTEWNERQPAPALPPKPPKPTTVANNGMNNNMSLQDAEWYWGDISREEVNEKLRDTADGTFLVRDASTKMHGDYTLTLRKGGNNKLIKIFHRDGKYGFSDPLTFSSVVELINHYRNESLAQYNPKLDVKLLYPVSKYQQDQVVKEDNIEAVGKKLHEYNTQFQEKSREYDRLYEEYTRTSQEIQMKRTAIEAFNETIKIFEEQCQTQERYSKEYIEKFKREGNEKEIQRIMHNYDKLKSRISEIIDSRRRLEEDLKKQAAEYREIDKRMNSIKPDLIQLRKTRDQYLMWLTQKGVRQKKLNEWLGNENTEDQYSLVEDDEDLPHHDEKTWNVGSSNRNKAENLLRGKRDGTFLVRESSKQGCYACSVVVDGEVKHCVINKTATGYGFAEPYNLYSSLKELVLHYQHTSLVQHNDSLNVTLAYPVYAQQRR
A short description of data set [3]: Compound stability in human liver microsomes. The data set is classed as in vitro ADME. Conditions: for half-life at 5 μM: human liver microsomes 0.5 mg protein/mL, compound 5 μM, NADPH 1.0 mM, 37° C.; for CLint scaled at 5 μM: human liver microsomes, in vivo CLint extrapolated.
Another data set has as its target PI3K (p110δ/p85α) (h) (Homo sapiens (Human), UniProt O00329). The data set can be described thus: PI3K (p110δ/p85α) (h) non-radioactive HTRF kinase assay. The data set is classed as biochemical.
A further data set deals with PI3K (p120γ) (h) (Homo sapiens (Human), UniProt P48736). Nature of the data set: PI3K (p120γ) (h) non-radioactive HTRF kinase assay. The data set is classed as biochemical.
Chain of PI3K (p120γ) (h) (P48736 whole entry): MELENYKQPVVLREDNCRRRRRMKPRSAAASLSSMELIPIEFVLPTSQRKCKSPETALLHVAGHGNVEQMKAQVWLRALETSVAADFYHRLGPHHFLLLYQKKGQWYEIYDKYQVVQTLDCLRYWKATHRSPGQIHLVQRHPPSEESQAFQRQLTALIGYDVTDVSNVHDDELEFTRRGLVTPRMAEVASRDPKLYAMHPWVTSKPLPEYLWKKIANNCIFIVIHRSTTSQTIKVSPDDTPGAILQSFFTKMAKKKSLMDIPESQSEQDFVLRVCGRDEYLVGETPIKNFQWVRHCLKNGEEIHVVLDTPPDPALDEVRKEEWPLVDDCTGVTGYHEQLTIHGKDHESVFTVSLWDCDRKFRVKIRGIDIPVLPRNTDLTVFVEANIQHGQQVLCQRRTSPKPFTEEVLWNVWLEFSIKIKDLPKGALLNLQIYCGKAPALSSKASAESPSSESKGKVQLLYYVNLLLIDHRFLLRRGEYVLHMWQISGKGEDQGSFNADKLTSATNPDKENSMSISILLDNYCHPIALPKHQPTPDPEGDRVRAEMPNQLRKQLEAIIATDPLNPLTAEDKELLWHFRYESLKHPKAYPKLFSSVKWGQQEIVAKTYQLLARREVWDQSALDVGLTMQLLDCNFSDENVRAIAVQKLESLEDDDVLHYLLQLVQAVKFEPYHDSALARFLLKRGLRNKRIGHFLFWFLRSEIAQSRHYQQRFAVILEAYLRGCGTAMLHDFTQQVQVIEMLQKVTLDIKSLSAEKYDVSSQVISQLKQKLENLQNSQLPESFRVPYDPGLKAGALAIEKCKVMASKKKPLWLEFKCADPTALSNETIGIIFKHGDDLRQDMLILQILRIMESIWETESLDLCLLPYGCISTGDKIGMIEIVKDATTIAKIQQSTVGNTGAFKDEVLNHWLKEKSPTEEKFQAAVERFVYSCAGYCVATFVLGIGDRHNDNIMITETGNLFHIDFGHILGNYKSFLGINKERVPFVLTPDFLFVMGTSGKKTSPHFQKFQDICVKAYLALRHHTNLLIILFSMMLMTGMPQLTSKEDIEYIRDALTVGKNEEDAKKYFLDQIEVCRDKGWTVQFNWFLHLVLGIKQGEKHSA

Read-outs that look alike come from different tables or passages of the source. Bounds are passed on as bounds.

Chain of PI3K (p110δ/p85α) (h) (O00329 whole entry): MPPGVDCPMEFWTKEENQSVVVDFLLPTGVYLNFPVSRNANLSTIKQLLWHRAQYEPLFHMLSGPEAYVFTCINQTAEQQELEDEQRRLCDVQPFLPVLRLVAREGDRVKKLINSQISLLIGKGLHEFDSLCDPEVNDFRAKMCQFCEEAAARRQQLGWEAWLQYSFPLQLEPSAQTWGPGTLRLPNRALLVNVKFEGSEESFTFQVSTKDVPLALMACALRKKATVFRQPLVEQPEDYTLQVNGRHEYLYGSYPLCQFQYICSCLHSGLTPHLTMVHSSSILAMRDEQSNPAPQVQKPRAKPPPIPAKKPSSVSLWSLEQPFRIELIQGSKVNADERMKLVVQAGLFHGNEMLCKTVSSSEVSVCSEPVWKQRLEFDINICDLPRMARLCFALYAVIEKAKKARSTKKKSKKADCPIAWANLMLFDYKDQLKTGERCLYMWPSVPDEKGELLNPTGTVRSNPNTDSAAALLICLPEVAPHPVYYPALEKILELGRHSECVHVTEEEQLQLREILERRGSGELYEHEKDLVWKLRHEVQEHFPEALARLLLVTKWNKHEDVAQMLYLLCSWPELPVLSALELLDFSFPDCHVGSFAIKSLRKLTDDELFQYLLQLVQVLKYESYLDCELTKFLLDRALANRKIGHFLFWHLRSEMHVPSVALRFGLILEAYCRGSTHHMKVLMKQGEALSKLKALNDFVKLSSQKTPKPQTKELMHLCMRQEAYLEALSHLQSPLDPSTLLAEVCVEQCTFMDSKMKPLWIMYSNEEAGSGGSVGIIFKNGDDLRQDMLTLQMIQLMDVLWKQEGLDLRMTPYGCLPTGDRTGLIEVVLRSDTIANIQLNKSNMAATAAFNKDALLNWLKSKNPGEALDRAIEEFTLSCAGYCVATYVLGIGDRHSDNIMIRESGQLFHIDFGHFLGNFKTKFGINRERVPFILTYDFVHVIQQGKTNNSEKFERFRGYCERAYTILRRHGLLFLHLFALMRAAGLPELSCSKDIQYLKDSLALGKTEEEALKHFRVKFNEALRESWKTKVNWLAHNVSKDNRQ
Chain of PI3K (p110δ/p85α) (h) (P27986 whole entry partner): as the sequence (P27986 whole entry partner) above

A word on the half-life: it is how long it takes for the measured level to halve. Read a low half-life as fast loss. By CLint scaled is commonly meant the capacity of the preparation to metabolise the compound, expressed as a volume cleared per time. A word on the AUC(0-t): it is the area under the concentration-time curve up to a stated or last time point. What is called IC50 is the point on the concentration scale where inhibition reaches its midpoint. `CC[C@H](Nc1ncnc(N)c1-c1ncc(C)o1)c1nc2cccc(Cl)c2c(=O)n1C1CC1` [Ex. 7, (S)-2-(1-((6-amino-5-(5-methyloxazol-2-yl)pyrimidin-4-yl)amino)propyl)-5-chloro-3-cyclopropylquinazolin-4(3H)-one]: in data set [1], the half-life at 5 μM stood at 10.5 min and the CLint scaled at 5 μM was 237 mL/min/kg. Besides, in data set [2] (dose 1 mg/kg), the “clearance (CL)” value was found to be 54.8 mL/min/kg, the AUC(0-t) turned out to be 300 ng·h/mL, the half-life was 79.8 min and the Vd amounted to 5.82 L/kg. The bioavailability in data set [2] (iv dose 1 mg/kg) is 45.7%. Also, the IC50 at PI3K (p110β/p85α) (h) came out at 2780 nM. In addition, in data set [3], the half-life at 5 μM is 19.4 min and the CLint scaled at 5 μM was 89.7 mL/min/kg. In addition, the IC50 at PI3K (p110δ/p85α) (h) is 246 nM.

As for `CC[C@H](Nc1ncnc(N)c1-c1nnc(C)o1)c1nc2cccc(Cl)c2c(=O)n1-c1ccccc1` [Ex. 1, (S)-2-(1-((6-amino-5-(5-methyl-1,3,4-oxadiazol-2-yl)pyrimidin-4-yl)amino)-propyl)-5-chloro-3-phenylquinazolin-4(3H)-one], in data set [1], the half-life at 5 μM worked out at 17.5 min and the CLint scaled at 5 μM is 142 mL/min/kg. Moreover, in data set [2] (dose 0.5 mg/kg), the “clearance (CL)” value was found to be 47.3 mL/min/kg, the AUC(0-t) is 355 ng·h/mL, the half-life was 46.8 min and the Vd came to 3.68 L/kg. Further, the bioavailability in data set [2] (iv dose 0.5 mg/kg) is 32.3%. In data set [3], the half-life at 5 μM was determined as 53.5 min and the CLint scaled at 5 μM is 32.5 mL/min/kg. For the same compound, the IC50 at PI3K (p120γ) (h) worked out at 384 nM. The IC50 at PI3K (p110δ/p85α) (h) worked out at 3 nM.

For `CC[C@H](Nc1ncnc(N)c1C1=N[C@@H](C)CO1)c1nc2cccc(Cl)c2c(=O)n1-c1ccccc1` [Ex. 6, 2-((S)-1((6-amino-5-((S)-4-methyl-4,5-dihydrooxazol-2-yl)pyrimidin-4-yl)amino)propyl)-5-chloro-3-phenylquinazolin-4(3H)-one], in data set [1], the half-life at 5 μM was found to be 3.44 min and the CLint scaled at 5 μM was 722 mL/min/kg. Moreover, in data set [2] (dose 1 mg/kg), the “clearance (CL)” value was found to be 110 mL/min/kg, the AUC(0-t) amounted to 151 ng·h/mL, the half-life is 69 min and the Vd was 6.75 L/kg. Besides, the bioavailability in data set [2] (iv dose 1 mg/kg) worked out at 5.56%. Also, the IC50 at PI3K (p110β/p85α) (h) is above 3000 nM. In data set [3], the half-life at 5 μM was found to be 3.11 min and the intrinsic metabolic clearance (CLint scaled) at 5 μM was 560 mL/min/kg. Moreover, the IC50 at PI3K (p110δ/p85α) (h) is 99 nM.

For the compound `CC[C@H](Nc1ncnc(N)c1-c1ccn(C)n1)c1nc2cccc(Cl)c2c(=O)n1C1CC1` [Ex. 51, (S)-2-(1-((6-amino-5-(1-methyl-1H-pyrazol-3-yl)pyrimidin-4-yl)amino)propyl)-5-chloro-3-cyclopropylquinazolin-4(3H)-one], in data set [1], the half-life at 5 μM was found to be 18.2 min and the CLint scaled at 5 μM was 136 mL/min/kg. Further, in data set [2] (dose 1 mg/kg), the “clearance (CL)” value worked out at 27.3 mL/min/kg, the AUC(0-t) was 609 ng·h/mL, the half-life was 115 min and the Vd was found to be 1.64 L/kg. Moreover, the bioavailability in data set [2] (iv dose 1 mg/kg) was found to be 59.8%. In data set [3], the half-life at 5 μM is 22.6 min and the CLint scaled at 5 μM is 76.9 mL/min/kg. In addition, the IC50 on PI3K (p110δ/p85α) (h) came to 135 nM.

Take `CCc1nc(-c2c(N)ncnc2N[C@@H](C)c2nc3cccc(Cl)c3c(=O)n2C2CC2)no1` [Ex. 61, (S)-2-(1-((6-amino-5-(5-ethyl-1,2,4-oxadiazol-3-yl)pyrimidin-4-yl)amino)ethyl)-5-chloro-3-cyclopropylquinazolin-4(3H)-one]: in data set [1], the half-life at 5 μM amounted to 3.29 min and the CLint scaled at 5 μM is 755 mL/min/kg. Also, in data set [2] (dose 1 mg/kg), the “clearance (CL)” value stood at 97.5 mL/min/kg, the AUC(0-t) was 169 ng·h/mL, the half-life is 60 min and the Vd stood at 7.07 L/kg. In data set [3], the half-life at 5 μM amounted to 6.07 min and the CLint scaled at 5 μM was 286 mL/min/kg. Moreover, the IC50 on PI3K (p110δ/p85α) (h) was found to be 44 nM.

In the case of `CC[C@H](Nc1ncnc(N)c1-c1nc(C)no1)c1nc2cccc(Cl)c2c(=O)n1[C@@H]1C[C@@H]1F` [Ex. 62, 2-((S)-1-((6-amino-5-(3-methyl-1,2,4-oxadiazol-5-yl)pyrimidin-4-yl)amino)propyl)-5-chloro-3-((1R,2S)-2-fluorocyclopropyl)quinazolin-4(3H)-one], in data set [1], the half-life at 5 μM was found to be 46.2 min and the CLint scaled at 5 μM was 53.7 mL/min/kg. In data set [2] (dose 1 mg/kg), the “clearance (CL)” value is 71.8 mL/min/kg, the AUC(0-t) worked out at 238 ng·h/mL, the half-life was 81 min and the Vd was determined as 6.11 L/kg. Moreover, the bioavailability in data set [2] (iv dose 1 mg/kg) came out at 27.7%. For the same compound, in data set [3], the half-life at 5 μM turned out to be 50.4 min and the CLint scaled at 5 μM is 34.5 mL/min/kg. Further, the IC50 on PI3K (p110δ/p85α) (h) was determined as 37 nM.

In the case of `CC[C@H](Nc1ncnc(N)c1-c1nnc(C)o1)c1nc2cccc(C)c2c(=O)n1C1CC1` [Ex. 20, (S)-2-(1-((6-amino-5-(5-methyl-1,3,4-oxadiazol-2-yl)pyrimidin-4-yl)amino)propyl)-3-cyclopropyl-5-methylquinazolin-4(3H)-one], in data set [1], the half-life at 5 μM came to 9.27 min and the CLint scaled at 5 μM was 268 mL/min/kg. For the same compound, in data set [2] (dose 1 mg/kg), the “clearance (CL)” value came out at 77.3 mL/min/kg, the AUC(0-t) was found to be 215 ng·h/mL, the half-life is 63 min and the Vd was determined as 6.35 L/kg. Further, the bioavailability in data set [2] (iv dose 1 mg/kg) came out at 79%. In data set [3], the half-life at 5 μM stood at 9.96 min and the CLint scaled at 5 μM was 249 mL/min/kg. Besides, the IC50 on PI3K (p110δ/p85α) (h) was 49 nM.

In the case of `CC[C@H](Nc1ncnc(N)c1-c1nc(C)no1)c1nc2ccccc2c(=O)n1-c1ccccc1F` [Ex. 22, (S)-2-(1-((6-amino-5-(3-methyl-1,2,4-oxadiazol-5-yl)pyrimidin-4-yl)amino)propyl)-3-(2-fluorophenyl)quinazolin-4(3H)-one], in data set [1], the half-life at 5 μM stood at 7.95 min and the CLint scaled at 5 μM was 312 mL/min/kg. Besides, in data set [2] (dose 1 mg/kg), the “clearance (CL)” value came to 159 mL/min/kg, the AUC(0-t) was 104 ng·h/mL, the half-life is 51 min and the Vd is 9.46 L/kg. Moreover, the bioavailability in data set [2] (iv dose 1 mg/kg) was 29.8%. In addition, in data set [3], the half-life at 5 μM is 15.3 min and the CLint scaled at 5 μM is 163 mL/min/kg. In addition, the IC50 at PI3K (p110δ/p85α) (h) stood at 26 nM.

On to `CC[C@H](Nc1ncnc(N)c1-c1ncn(C)n1)c1nc2cccc(Cl)c2c(=O)n1-c1ccccc1` [Ex. 32, (S)-2-(1-((6-amino-5-(1-methyl-1H-1,2,4-triazol-3-yl)pyrimidin-4-yl)amino)-propyl)-5-chloro-3-phenylquinazolin-4(3H)-one], for which, in data set [1], the half-life at 5 μM was determined as 20 min and the CLint scaled at 5 μM was 124 mL/min/kg. Also, in data set [2] (dose 1 mg/kg), the “clearance (CL)” value turned out to be 43.3 mL/min/kg, the AUC(0-t) amounted to 390 ng·h/mL, the half-life was 37.8 min and the Vd was 1.51 L/kg. Moreover, in data set [2] (iv dose 1 mg/kg), the bioavailability was found to be 61%. Also, in data set [3], the half-life at 5 μM was 17.4 min and the CLint scaled at 5 μM is 100 mL/min/kg. For the same compound, the IC50 at PI3K (p110δ/p85α) (h) was 70 nM.

In the case of `CC[C@H](Nc1ncnc(N)c1-c1ccccn1)c1nc2cccc(Cl)c2c(=O)n1C1CC1` [Ex. 11, (S)-2-(1-((6-amino-5-(pyridin-2-yl)pyrimidin-4-yl)amino)propyl)-5-chloro-3-cyclopropylquinazolin-4(3H)-one], in data set [1], the half-life at 5 μM is 62.2 min and the CLint scaled at 5 μM is 39.9 mL/min/kg. In data set [2] (dose 0.5 mg/kg), the “clearance (CL)” value turned out to be 4.83 mL/min/kg, the AUC(0-t) turned out to be 1690 ng·h/mL, the half-life was 157 min and the Vd was found to be 0.59 L/kg. Moreover, the bioavailability in data set [2] (iv dose 0.5 mg/kg) was 38.5%. Moreover, at PI3K (p110β/p85α) (h), the IC50 was above 3000 nM. Also, in data set [3], the half-life at 5 μM is 78.2 min and the CLint scaled at 5 μM is 22.2 mL/min/kg. At PI3K (p110δ/p85α) (h), the IC50 was found to be 1470 nM.

`CC[C@H](Nc1ncnc(N)c1-c1nnc(C)o1)c1nc2cccc(F)c2c(=O)n1-c1ccccc1` [Ex. 40, (S)-2-(1-((6-amino-5-(5-methyl-1,3,4-oxadiazol-2-yl)pyrimidin-4-yl)amino)-propyl)-5-fluoro-3-phenylquinazolin-4(3H)-one]: in data set [1], the half-life at 5 μM came out at 12.6 min and the CLint scaled at 5 μM was 198 mL/min/kg. Further, in data set [2] (dose 1 mg/kg), the “clearance (CL)” value was 57.3 mL/min/kg, the AUC(0-t) came to 292 ng·h/mL, the half-life is 40.2 min and the Vd is 2.99 L/kg. Moreover, in data set [2] (iv dose 1 mg/kg), the bioavailability was found to be 112%. Also, in data set [3], the half-life at 5 μM came out at 28 min and the CLint scaled at 5 μM is 62.1 mL/min/kg. Also, at PI3K (p110δ/p85α) (h), the IC50 is 93 nM.

Consider `CC[C@H](Nc1ncnc(N)c1-c1ncnn1C)c1nc2cccc(Cl)c2c(=O)n1-c1ccccc1` [Ex. 10, 2-((1S)-1-((6-amino-5-(1-methyl-1H-1,2,4-triazol-5-yl)pyrimidin-4-yl)amino)propyl)-5-chloro-3-phenylquinazolin-4(3H)-one], for which, in data set [1], the half-life at 5 μM worked out at 70.1 min and the CLint scaled at 5 μM is 35.4 mL/min/kg. Besides, in data set [2] (dose 0.5 mg/kg), the “clearance (CL)” value came out at 3.5 mL/min/kg, the AUC(0-t) stood at 2420 ng·h/mL, the half-life was 72 min and the Vd was found to be 0.3 L/kg. In addition, the bioavailability in data set [2] (iv dose 0.5 mg/kg) amounted to 40.2%. In addition, the IC50 at PI3K (p110β/p85α) (h) was above 3000 nM. In data set [3], the half-life at 5 μM worked out at 92 min and the CLint scaled at 5 μM was 18.9 mL/min/kg. Also, the IC50 at PI3K (p110δ/p85α) (h) was determined as 2510 nM.

Source of the values: US9670194B2 (Calitor Sciences, LLC, priority 2013, dated 2017).
